# US9370554B2, “Method for treating breast cancer with prolactin receptor agonists” (Orbis Health Solutions LLC, priority 2010, dated 2016)
# B1: human prolactin (protein, UniProt P01236 29-227, looked up)
# Prolactin: LPICPGGAARCQVTLRDLFDRAVVLSHYIHNLSSEMFSEFDKRYTHGRGFITKAINSCHTSSLATPEDKEQAQQMNQKDFLSLIVSILRSWNEPLYHLVTEVRGMQEAPEAILSKAVEIEEQTKRLLEGMELIVSQVHPETKENEIYPVWSGLPSLQMADEESRLSAYYNLLHCLRRDSHKIDNYLKLLKCRIIHNNNC
# What was measured:
# [1] = test system: MCF-7 human breast cancer cells; assay: Tumorsphere formation assay, MCF-7 (Example 1); assay type: cell-based; details: 11 days of treatment, hPRL 0.5 μg/ml, Dox 25 ng/ml, tumorspheres greater than 100 μm, FIG. 1
# Experimental: Tumor sphere formation assay and aldehyde dehydrogenase (ALDH) activity measured by flow cytometry were used to measure the functional response of the CSCs after 11 days of co-treatment with human prolactin (hPRL) and doxorubicin (Dox). MCF-7 and MMTV-neu cells were cultured by standard methods known in the art. Briefly, unsorted MCF-7 cells were plated in ultra-low attachment plate (Corning Inc, Corning, N.Y.) at a density of 5000 cells/ml in serum-free Dulbecco's Modified Eagle Medium—F12 (DMEM-F12) supplemented with 0.4% bovine serum albumin (BSA), 10 ng/mL of basic fibroblast growth factor (bFGF), 20 ng/ml of epidermal growth factor (EGF), 5 μg/ml of insulin (all from Sigma-Aldrich Co., St. Louis, Mo.). Tumorspheres were allowed to form in 37° C. with 5% CO2 for 10 days. Culture medium were replaced two times in the course of treatment. Similar culturing method was applied to MMTV-neu cells in the exception of MMTV-neu cells were plated at a density of 200,000 cells/ml. Cells were treated with 0.5 μg/ml of hPRL, 25 ng/ml of doxorubicin or a combination of 0.5 μg/ml hRPL and 25 ng/ml doxorubicin. After 11 days of treatment, the cells were analyzed for tumorsphere formation and ALDH activity levels. Tumorsphere formation was determined by spheres formed in the culture medium. Spheres number were counted manually under four random fields of the 24-well at 40× magnification.
# [2] = test system: MCF-7 human breast cancer cells; assay: ALDH activity by flow cytometry (ALDEFLUOR), MCF-7 tumorspheres (Example 1); assay type: cell-based; details: 11 days, hPRL 0.5 μg/ml, Dox 25 ng/ml, FIG. 2
# Experimental: (§1) MCF-7 human breast cancer cells and primary mouse breast cancer cells isolated from MMTV-neu transgenic mice were used in this study. Tumor sphere formation assay and aldehyde dehydrogenase (ALDH) activity measured by flow cytometry were used to measure the functional response of the CSCs after 11 days of co-treatment with human prolactin (hPRL) and doxorubicin (Dox).
# (§2) Cells were treated with 0.5 μg/ml of hPRL, 25 ng/ml of doxorubicin or a combination of 0.5 μg/ml hRPL and 25 ng/ml doxorubicin. After 11 days of treatment, the cells were analyzed for tumorsphere formation and ALDH activity levels.
# Accordingly, to determine the number of CSCs in a tumor sample, ALDH activity levels were determined by the ALDEFLUOR kit (StemCell Technologies, Vancouver, BC, Canada). Briefly, tumorspheres were dissociated by trypsin (Invitrogen, Carlsbad, Calif.) at 37° C. for 5 minutes and resuspended in ALDEFLUOR assay buffer containing ALDH substrate (BODIPY-aminoacetaldehyde, 1 μM per 1×10^6 cells). An aliquot of the cells were treated with 7.5 μM of diethylaminobenzaldehyde (DEAB), an inhibitor of ALDH, as the negative control. Samples were incubated in 37° C. with 5% CO2 for 45 minutes and analyzed by FACSCalibur (Becton Dickinson Co., Franklin Lakes, N.J.). The ALDH-positive gate was established using the negative control treated with DEAB.
# McNeuA implanted mice = assay: In vivo combination therapy on McNeuA implanted FVB mice (Example 2); design: species or system mouse; details: four-week regimen, weekly Dox with or without daily hPRL injection; for Time to relapse: X, Y are placeholders
# From the text: Finally, the efficacy of the treatment is examined in vivo by implanting McNeuA cell into FVB mice. Two weeks after tumor cell inoculation, a four-week treatment regimen is applied (weekly Dox with or without daily hPRL injection). Tumor growth and the time to relapse is monitored and compared among groups.
# [3] = test system: MCF-7, SKBR3 and McNeuA breast cancer cell lines; assay: Tumorsphere evaluation, all cell lines tested (Example 2); assay type: cell-based, human and mouse; details: 7 and 14 days of treatment
# From the text: (§3) Three breast cancer cell lines are used in this assay: two human breast cancer cell lines, MCF-7 (ER^high, HER2^low) and SKBR3 (ER^low, HER2^high), and one mouse breast cancer cell line that was established from HER2/neu transgenic mice (McNeuA). After establishing the dose response curves, all three cell lines will be used for two in vitro studies. The cells will be treated with a standard chemotherapeutic drug, doxorubicin (Dox) alone (Max or IC50) or in combination with hPRL (Max or IC50).
# First, the functional response of CSCs is measured by standard colony formation and tumorsphere formation assays after 7- and 14 days of treatment using methods described above in Example 2.
# [4] = test system: MCF-7, SKBR3 and McNeuA breast cancer cell lines; assay: ALDH testing, cell lines of Example 2; assay type: cell-based, human and mouse; details: Example 2 cell lines; 12, 24 and 48 hours of treatment
# From the text: as §3
# Next, the CSC population is measured by two sets of the stem cell markers, aldehyde dehydrogenase (ALDH) and CD44^high/CD24^low after a 12-, 24- and 48 hours of treatment using flow cytometry methods as described in Example 2.
# [5] = test system: primary mouse breast cancer cells isolated from MMTV-neu transgenic mice; assay: Tumorsphere formation assay, MMTV-neu primary cells (Example 1); assay type: cell-based; details: 11 days, hPRL 0.5 μg/ml, ±0.34, p<0.001, data not shown
# Experimental: as §1
# MCF-7 and MMTV-neu cells were cultured by standard methods known in the art. Briefly, unsorted MCF-7 cells were plated in ultra-low attachment plate (Corning Inc, Corning, N.Y.) at a density of 5000 cells/ml in serum-free Dulbecco's Modified Eagle Medium—F12 (DMEM-F12) supplemented with 0.4% bovine serum albumin (BSA), 10 ng/mL of basic fibroblast growth factor (bFGF), 20 ng/ml of epidermal growth factor (EGF), 5 μg/ml of insulin (all from Sigma-Aldrich Co., St. Louis, Mo.). Tumorspheres were allowed to form in 37° C. with 5% CO2 for 10 days. Culture medium were replaced two times in the course of treatment. […]
# as §2
# Tumorsphere formation was determined by spheres formed in the culture medium. Spheres number were counted manually under four random fields of the 24-well at 40× magnification.
Molecule,number of tumorspheres formed / tumorspheres formation [1],number of ALDH+ cells (ALDH positive cell population) [2],number of ALDH− cells [2],Tumor size (McNeuA implanted mice),Time to relapse (McNeuA implanted mice),tumorsphere formation (number and size of tumorspheres) [3],number of ALDH-negative cells [4],number of ALDH-positive cells [4],increase of tumorspheres formation [5] [fold]
"COc1cccc2c1C(=O)c1c(O)c3c(c(O)c1C2=O)C[C@@](O)(C(=O)CO)C[C@@H]3O[C@H]1C[C@H](N)[C@H](O)[C@H](C)O1 [Dox, doxorubicin]",negligible effect,no significant change,decreased,decrease,X days after last treatment,negligible affect,reduced,unaffected,–
B1,slightly increased,–,–,increase comparable to “no,no remission,negligible affect,negligible affect,negligible affect,2.3
